Test results as given in patent publication US20220273658A1, “SMALL MOLECULE LIVER X RECEPTOR MODULATORS AND USES THEREOF” (University of Houston System, priority 2019, published 2022).

Assays:
pancreatic cancer cells = test: metabolomic analysis using mass spectroscopy in pancreatic cancer cells; assay type: cell-based, human
Method: To further characterize the mechanisms of action of novel LXR modulators 1E5 and 3A4, metabolomic and transcriptomic analysis of pancreatic cancer cells were conducted in response to treatment. […] PDAC tumors have altered metabolism to support its growth and survival. Previous studies have reported that Kras upregulates the non-canonical use of glutamine to maintain NADPH/NADP+ ratio which in turn regulates redox homeostasis. This unconventional use of glutamine by PDAC cells fuel cancer cell proliferation and survival. Glutamine metabolism in PDAC has two unique functions: 1. Glutamine-derived Glutamate is used for glutathione (GSH) biosynthesis. 2. Glutamine facilitates generation of reducing equivalents in the form of NADPH. In PDAC mitochondria, glutamine is converted to glutamate by glutaminase enzyme (GLS1). This glutamine derived glutamate is conventionally converted to alpha-ketoglutarate by glutamate dehydrogenase (GLUD1) to fuel citric acid cycle. However, in PDAC cells glutamate is converted to aspartate in cytosol which is converted to malic acid and NADPH is produced during this process. This process is essential to maintain redox homeostasis in the tumor. However, this non-canonical use of glutamine is dispensable in non-malignant cells. Therefore, targeting GLS1 to decrease the bioavailability of glutamate to act as source of nitrogen and carbon for the synthesis of amino acids and nucleic acids is a viable strategy to target PDAC tumors. […] The effect of 1E5 is similar to BPTES, a potent GLS1 inhibitor.
(§1) TCA cycle intermediates act as anaplerotic substrate for gluconeogenesis and lipogenesis. […] GOT2 converts glutamine-derived glutamate to alpha-KG. During this process oxaloacetate is converted to aspartate which is required to maintain redox homeostasis. Studies have shown that inhibition of GOT2 in PDAC promotes senescence.
To determine if 1E5 and 3A4 can induce apoptosis, PDAC cells were treated with the LXR ligands and subjected to pro-apoptotic caspase cleavage analysis. […] Metabolomic profiling following treatments with the two ligands indicated the activation of two distinct cell death mechanisms. Ferroptosis is a non-apoptotic form of cell death which is characterized by accumulation of lipid peroxides by loss of glutathione peroxidase 4 (GPX4) activity. It can also be induced by accumulation of intracellular iron and depletion of reduced glutathione (GSH). GPX4 is an anti-oxidant enzyme involved in conversion of PUFA peroxides to PUFA alcohols. GSH is a critical cofactor of GPX4 and acts as a reducing agent to reduce the lipid peroxides. Therefore, direct inhibition of GPX4 activity or reduction in GSH levels trigger ferroptosis. The second mechanism of inducing ferroptosis is accumulation of polyunsaturated fatty acids (PUFAs) in cells. Studies have shown that PUFAs are the most susceptible lipids to peroxidation.
Expression profiles of ferroptosis genes in RNAseq data following 1E5 treatment were also consistent with its pro-ferroptotic actions. […] Polyamines are amino-acid derived polycationic alkylamines that are required for the growth of cells. SAT1 catalyzes the acetylation of spermidine and spermine to form N-acetylspermidine and N-acetylspermine respectively. […] SAT1 induces ferroptosis by upregulating the peroxidation of PUFA arachidonic acid. Ceramides are sphingolipids consisting of sphingosine and fatty acid acyl chain. Cellular stress leads to upregulation of ceramide synthesis which mediate caspase-dependent apoptosis. Accumulation of ceramides/hexosylceramides in the mitochondria leads to the formation of channel like structures in the mitochondrial outer membrane which increases the permeability of pro-apoptotic proteins such as cytochrome c. ER stress is also known to activate de-novo synthesis of ceramides and induce apoptosis by increasing the flow of Ca ions and upregulating the unfolded protein stress response. […]

HPNE cells = test: growth of non-transformed pancreatic epithelial cells (WST screen; FIG. 32D); assay type: cell-based, human; details: WST screen
Method: (§2) The initial identification and subsequent characterization of the two novel LXR ligands and their derivative compounds was carried out in screens in three human pancreatic cancer cell and one non-transformed human pancreatic epithelial cell line in three or more replicate experiments for each cell line using the WST tetrazolium salt reduction assays.
(§3) The synthesis and characterization of KD-01-39, a derivative of 3A4, have not been described previously.

MDA-MB-231 = test: expression of LXR target genes in breast cancer cells; assay type: cell-based; details: MDA-MB-231, triple-negative
Description: (§4) The inhibitory effects of LXR ligands in breast cancer cells have been shown previously. […] The observed decreases in LXR protein levels were not affected by proteasome inhibitor MG132.

MCF-7 = test: as above; assay type: cell-based; details: MCF-7, ER-positive
Description: as §4

[1] = system: LXR ligand-binding domain; test: TR-FRET assay of co-activator and co-repressor peptide recruitment; assay type: biochemical
Method: To elucidate mechanisms of inverse agonism by the novel ligands, TR-FRET experiments were conducted to determine the effects of 1E5 and 3A4 on the recruitment of NR co-activators and co-repressors. […] In addition to their functions as inverse agonists, extended treatments with 1E5 and 3A4 also destabilized or decreased LXR proteins.
as §3

GLS1 and GOT2 = test: qPCR of genes involved in glutamine metabolism; assay type: cell-based, human; details: PDAC cells
Description: as §1

[2] = system: genes involved in ferroptosis; test: quantitative PCR of genes involved in ferroptosis; assay type: cell-based, human
Description: Expression profiles of ferroptosis genes in RNAseq data following 1E5 treatment were also consistent with its pro-ferroptotic actions. […] Polyamines are amino-acid derived polycationic alkylamines that are required for the growth of cells. SAT1 catalyzes the acetylation of spermidine and spermine to form N-acetylspermidine and N-acetylspermine respectively. […] SAT1 induces ferroptosis by upregulating the peroxidation of PUFA arachidonic acid. Ceramides are sphingolipids consisting of sphingosine and fatty acid acyl chain. Cellular stress leads to upregulation of ceramide synthesis which mediate caspase-dependent apoptosis. Accumulation of ceramides/hexosylceramides in the mitochondria leads to the formation of channel like structures in the mitochondrial outer membrane which increases the permeability of pro-apoptotic proteins such as cytochrome c. ER stress is also known to activate de-novo synthesis of ceramides and induce apoptosis by increasing the flow of Ca ions and upregulating the unfolded protein stress response.

PDAC cell lines = test: tetrazolium salt reduction (WST) assay in PDAC cell lines; assay type: cell-based, human; details: WST screen, three human pancreatic cancer cell lines
Method: To determine the effects of LXR ligands on PDAC cell proliferation, cells were treated with synthetic LXR agonist GW3965 and live cells were quantified using trypan blue exclusion assays. […] FIGS. 8A, 8B, and 8C show dose-dependent decreases in cell proliferation in BxPC-3, Mia-PaCa-2, and PANC-1, respectively upon treatment with increasing GW3965 concentrations. […] Clonogenic assays were also employed to evaluate the effects of long-term LXR ligand treatment on cell proliferation and colony formation. […] These findings indicate that LXRs are involved in PDAC cell proliferation and targeting LXRs with ligands perturb their normal functions in cell proliferation.
as §2

[3] = system: LXR proteins in MCF-7 cells; test: western blot of LXR protein levels; assay type: cell-based
Description: as §4

LXR in MDA-MB-231 cells = test: western blot of LXR protein levels; assay type: cell-based
Description: as §4

activity against non-transformed HPNE cells (HPNE cells): little activity
binding of NCOR and SMRT co-repressor peptides ([1]; co-repressor (NCOR and SMRT-ID2) peptides): increased the binding
Compound: O=c1cc(-c2ccccc2)nc(Nc2cccc(C(F)(F)F)c2)[nH]1 [Compound 1E5, 6-phenyl-2-{[3-(trifluoromethyl)phenyl]amino}-3,4-dihydropyrimidin-4-one]
glutamate levels (mass spectroscopy) (pancreatic cancer cells): decreases in glutamate levels
glutamine biosynthesis (pancreatic cancer cells): inhibited glutamine biosynthesis
level of glutathione (GSH) (pancreatic cancer cells): decreased level of GSH
levels of TCA cycle intermediates (alpha-KG, citrate and fumarate) (pancreatic cancer cells): downregulated
levels of asparagine and aspartate (pancreatic cancer cells): decreased the levels
levels of polyamine metabolites (pancreatic cancer cells; PANC-1): depletion of spermidine and spermine and accumulation of putrescine, N-acetylspermidine and N-acetylspermine
levels of polyunsaturated fatty acids (PUFAs) (pancreatic cancer cells; PANC-1): increased levels of PUFAs
expression of LXR target genes (MDA-MB-231): generally down-regulated
expression of LXR target genes (MCF-7): generally down-regulated
co-activator peptide binding to LXR ligand-binding domain ([1]; co-activator (D22) peptide): did not affect co-activator peptide binding
expression of GLS1 and GOT2 (GLS1 and GOT2): downregulated the expression
expression of GPX4 and other negative regulators of ferroptosis (STMN1, RRM2) [2]: decreased the expression
expression of SAT1 [2]: increases the expression
human pancreatic cancer cells growth (PDAC cell lines): effective in inhibiting human pancreatic cancer cells growth
LXR protein levels (degradation) [3]: act as degraders of LXR proteins
LXR protein levels (degradation) (LXR in MDA-MB-231 cells): degraded LXR
